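Assay format: 96-well plates, 48-hour exposure. Here, GI50 denotes the concentration required for 50% inhibition of growth.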 Calls of active or inactive are those of the source. Cut-off read from the data, not from the text of the source: active = GI50 up to about 1.1 µM and inactive = higher.
Experiments:
Experiment in all cases: NCI-60 cell line screen, 48 h
CAKI-1 = test system: CAKI-1
Hs-578T = test system: Hs-578T
NCI-H226 = test system: NCI-H226
TK-10 = test system: TK-10
SF-268 = test system: SF-268
PC-3 = test system: PC-3
MDA-N = test system: MDA-N
SN12C = test system: SN12C
OVCAR-5 = test system: OVCAR-5
HT-29 = test system: HT-29
SF-539 = test system: SF-539
K562 = test system: K562
LOX IMVI = test system: LOX IMVI
T47D = test system: T47D
SK-MEL-5 = test system: SK-MEL-5
SNB-75 = test system: SNB-75
SK-MEL-2 = test system: SK-MEL-2
HCC 2998 = test system: HCC 2998
MCF7 = test system: MCF7
SW-620 = test system: SW-620

Measured: GI50

CN1CN(c2ccccc2)C2(CCN(C(=O)OC(C)(C)C)CC2)C1=O
inactive: CAKI-1 > 100 µM | Hs-578T 57 µM | NCI-H226 > 100 µM | TK-10 > 100 µM | SF-268 > 100 µM | PC-3 > 100 µM | MDA-N > 100 µM | SN12C > 100 µM | OVCAR-5 > 100 µM | HT-29 > 100 µM | SF-539 > 100 µM | K562 75.3 µM | LOX IMVI > 100 µM | T47D > 100 µM | SK-MEL-5 > 100 µM | SNB-75 > 100 µM | SK-MEL-2 > 100 µM | HCC 2998 > 100 µM | MCF7 > 100 µM | SW-620 > 100 µM

COC1=C(OC)C(=O)c2cc(C)c(=O)c(C)cc2C1=O
inactive: CAKI-1 17.3 µM | Hs-578T 23.1 µM | NCI-H226 18.6 µM | TK-10 19.1 µM | SF-268 13.6 µM | PC-3 20.3 µM | MDA-N 2.53 µM | SN12C 2.81 µM | OVCAR-5 31.3 µM | HT-29 22.1 µM | SF-539 18.2 µM | K562 3.19 µM | LOX IMVI 11.2 µM | T47D 28.6 µM | SK-MEL-5 15.8 µM | SNB-75 18.4 µM | SK-MEL-2 17.3 µM | HCC 2998 22.4 µM | MCF7 17.9 µM | SW-620 8.61 µM

Fc1ccc(F)c(/C=N/C23CC4CC(CC(C4)C2)C3)c1
inactive: CAKI-1 > 10 µM | Hs-578T > 10 µM | NCI-H226 > 10 µM | TK-10 > 10 µM | SF-268 > 10 µM | PC-3 > 10 µM | MDA-N > 10 µM | SN12C > 10 µM | OVCAR-5 > 10 µM | HT-29 > 10 µM | SF-539 > 10 µM | K562 4.44 µM | LOX IMVI > 10 µM | T47D > 10 µM | SK-MEL-5 > 10 µM | SNB-75 > 10 µM | SK-MEL-2 > 10 µM | HCC 2998 > 10 µM | MCF7 > 10 µM | SW-620 > 10 µM

O=C1CC(n2cccc2)c2c(Br)sc(Br)c21 (stereo not given)
inactive: CAKI-1 6.49 µM | Hs-578T 25.1 µM | NCI-H226 18.8 µM | TK-10 19.2 µM | SF-268 14.8 µM | PC-3 16.4 µM | MDA-N 16.3 µM | SN12C 17.3 µM | OVCAR-5 17.7 µM | HT-29 16.6 µM | SF-539 17.6 µM | K562 14.5 µM | LOX IMVI 6.73 µM | T47D 18.1 µM | SK-MEL-5 16 µM | SNB-75 18.7 µM | SK-MEL-2 14.5 µM | HCC 2998 15.4 µM | MCF7 12 µM | SW-620 12.4 µM

— ChEMBL document CHEMBL1201862, “PubChem BioAssay data set” (2004)
